From patent US20170057955A1, “Pyridopyrimidinone Compounds for Modulating the Catalytic Activity of Histone Lysine Demethylases (KDMs)” (Dong-A Socio Holdings Co., Ltd., priority 2015, published 2017)

Target: T1, Recombinant human JARID1B/KDM5B (Homo sapiens, UniProt Q9UGL1)
T1 construct: purchased Active Motif 31432; host or cells: Sf9 insect cells
Test: LANCE Ultra TR-FRET JARID1B (KDM5B) demethylase inhibition assay
Assay type: biochemical
Conditions: 0.1 uM of test-compounds, FLAG-JARID1B, 500 nM biotinylated H3K4me3 peptide substrate, 30 min at room temperature
Summary of the method: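 FLAG-tagged JARID1B from Sf9 cells, pre-incubated 5 min with 0.1 uM compound (1% DMSO), then 500 nM biotinylated H3K4me3 peptide, 500 uM 2-OG, 25 uM Fe(II), 2 mM ascorbate in pH 7.5 Hepes buffer. After 30 min at room temperature, H3K4me2/1 product detected by TR-FRET (665/590 nm ratio).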

T1 sequence (Q9UGL1 whole entry): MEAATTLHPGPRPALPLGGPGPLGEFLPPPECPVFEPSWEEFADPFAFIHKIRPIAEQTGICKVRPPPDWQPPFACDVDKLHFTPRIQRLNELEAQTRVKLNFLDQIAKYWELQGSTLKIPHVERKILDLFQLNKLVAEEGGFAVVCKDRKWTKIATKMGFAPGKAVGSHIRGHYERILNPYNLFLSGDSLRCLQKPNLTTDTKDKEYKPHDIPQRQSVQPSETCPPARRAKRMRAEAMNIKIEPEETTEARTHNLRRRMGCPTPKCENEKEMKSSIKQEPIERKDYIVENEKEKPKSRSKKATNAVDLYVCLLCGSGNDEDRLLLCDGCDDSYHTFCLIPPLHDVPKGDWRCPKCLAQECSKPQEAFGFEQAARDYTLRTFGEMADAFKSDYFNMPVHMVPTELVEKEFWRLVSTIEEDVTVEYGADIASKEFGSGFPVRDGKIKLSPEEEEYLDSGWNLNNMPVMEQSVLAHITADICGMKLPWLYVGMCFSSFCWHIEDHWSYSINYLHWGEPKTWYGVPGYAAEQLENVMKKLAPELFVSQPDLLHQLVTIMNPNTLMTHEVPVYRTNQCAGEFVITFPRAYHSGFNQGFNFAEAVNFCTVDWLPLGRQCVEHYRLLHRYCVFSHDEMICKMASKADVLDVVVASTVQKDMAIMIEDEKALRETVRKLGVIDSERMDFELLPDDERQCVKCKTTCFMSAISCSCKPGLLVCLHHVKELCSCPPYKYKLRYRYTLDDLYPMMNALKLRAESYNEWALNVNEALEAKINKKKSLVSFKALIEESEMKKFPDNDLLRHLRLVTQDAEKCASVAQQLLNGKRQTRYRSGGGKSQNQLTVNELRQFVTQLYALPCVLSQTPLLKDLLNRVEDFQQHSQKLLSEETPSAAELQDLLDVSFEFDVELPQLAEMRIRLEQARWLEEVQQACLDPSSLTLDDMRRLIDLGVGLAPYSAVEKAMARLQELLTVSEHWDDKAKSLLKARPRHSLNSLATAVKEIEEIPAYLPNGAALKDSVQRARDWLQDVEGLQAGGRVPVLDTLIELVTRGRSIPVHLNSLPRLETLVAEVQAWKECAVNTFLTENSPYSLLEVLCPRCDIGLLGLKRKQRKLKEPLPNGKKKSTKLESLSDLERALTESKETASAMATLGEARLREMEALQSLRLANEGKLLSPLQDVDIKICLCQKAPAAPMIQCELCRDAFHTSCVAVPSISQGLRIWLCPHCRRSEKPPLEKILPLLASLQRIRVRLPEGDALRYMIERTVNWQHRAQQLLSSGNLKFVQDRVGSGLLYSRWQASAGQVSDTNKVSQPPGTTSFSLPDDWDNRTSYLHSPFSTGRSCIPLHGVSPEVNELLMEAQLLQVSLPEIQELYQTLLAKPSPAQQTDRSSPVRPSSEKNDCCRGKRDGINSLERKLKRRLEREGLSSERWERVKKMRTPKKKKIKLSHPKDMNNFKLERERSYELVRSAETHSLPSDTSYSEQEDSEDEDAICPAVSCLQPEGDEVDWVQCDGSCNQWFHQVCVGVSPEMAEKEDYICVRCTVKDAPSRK

O=c1[nH]c(COc2ccccc2Cl)nc2c(-c3csc(NCCO)n3)nccc12 [Compound 132, 2-((2-chlorophenoxy)methyl)-8-(2-((2-hydroxyethyl)amino)thiazol-4-yl)pyrido[3,4-d]pyrimidin-4(3H)-one] and O=c1[nH]c(COCc2ccccc2)nc2c(-c3csc(NCCO)n3)nccc12 [Compound 142, 2-((benzyloxy)methyl)-8-(2-((2-hydroxyethyl)amino)thiazol-4-yl)pyrido[3,4-d]pyrimidin-4(3H)-one] fall in the same range of inhibition at 0.1 µM: 20 to 50% for the first, 20 to 50% for the second.

CN(C)CCNc1nc(-c2nccc3c(=O)[nH]c(CCc4ccccc4)nc23)cs1 [Compound 162, 8-(2-((2-(dimethylamino)ethyl)amino)thiazol-4-yl)-2-phenethylpyrido[3,4-d]pyrimidin-4(3H)-one] and CN(C)CCNc1nc(-c2nccc3c(=O)[nH]c(COc4cc(F)cc(F)c4)nc23)cs1 [Compound 130, 2-((3,5-difluorophenoxy)methyl)-8-(2-((2-(dimethylamino)ethyl)amino)thiazol-4-yl)pyrido[3,4-d]pyrimidin-4(3H)-one] cannot be ordered by inhibition at 0.1 µM: 20 to 50% for the first, at least 50% for the second.

O=c1[nH]c(COc2ccc(Cc3ccccc3)cc2)nc2c(-c3csc(Nc4ccccc4)n3)nccc12 [Compound 73, 2-((4-benzylphenoxy)methyl)-8-(2-(phenylamino)thiazol-4-yl)pyrido[3,4-d]pyrimidin-4(3H)-one] and O=c1[nH]c(COc2ccc(Cc3ccccc3)cc2)nc2c(-c3nccs3)nccc12 [Compound 66, 2-((4-benzylphenoxy)methyl)-8-(thiazol-2-yl)pyrido[3,4-d]pyrimidin-4(3H)-one] cannot be ordered by inhibition at 0.1 µM: under 20% for the first, under 20% for the second.

NCCNc1nc(-c2nccc3c(=O)[nH]c(COc4ccc(F)c(Cl)c4)nc23)cs1 [Compound 88, 8-(2-((2-aminoethyl)amino)thiazol-4-yl)-2-((3-chloro-4-fluorophenoxy)methyl) pyrido[3,4-d]pyrimidin-4(3H)-one] and CN1CCCC1CCNc1nc(-c2nccc3c(=O)[nH]c(COc4ccc(F)c(Cl)c4)nc23)cs1 (stereo not shown) [Compound 92, 2-((3-chloro-4-fluorophenoxy)methyl)-8-(2-((2-(1-methylpyrrolidin-2-yl)ethyl)amino)thiazol-4-yl)pyrido[3,4-d]pyrimidin-4(3H)-one] cannot be ordered by inhibition at 0.1 µM: at least 50% for the first, at least 50% for the second.

O=c1[nH]cnc2c(-c3csc(NCC4CCN(C5CCCC5)CC4)n3)nccc12 [Compound 54, 8-(2-(((1-cyclopentylpiperidin-4-yl)methyl)amino)thiazol-4-yl)pyrido[3,4-d]pyrimidin-4(3H)-one] and O=c1[nH]cnc2c(-c3csc(NCC4CCN(CCO)CC4)n3)nccc12 [Compound 51, 8-(2-(((1-(2-hydroxyethyl)piperidin-4-yl)methyl)amino)thiazol-4-yl)pyrido[3,4-d]pyrimidin-4(3H)-one] cannot be ordered by inhibition at 0.1 µM: at least 50% for the first, at least 50% for the second.

Nc1nn(-c2nccc3c(=O)[nH]cnc23)cc1-c1cnn(Cc2ccccc2)c1 [Compound 28, 8-(3-amino-1′-benzyl-1H,1′H-[4,4′-bipyrazol]-1-yl)pyrido[3,4-d]pyrimidin-4(3H)-one] and Cn1cc(-c2cn(-c3nccc4c(=O)[nH]cnc34)nc2N)cn1 [Compound 15, 8-(3-amino-1′-methyl-1H,1′H-[4,4'-bipyrazol]-1-yl)pyrido[3,4-d]pyrimidin-4(3H)-one] cannot be ordered by inhibition at 0.1 µM: at least 50% for the first, 20 to 50% for the second.

O=c1[nH]c(COc2ccc(F)c(Cl)c2)nc2c(-c3csc(NCC4CCCO4)n3)nccc12 (stereo not shown) [Compound 85, 2-((3-chloro-4-fluorophenoxy)methyl)-8-(2-(((tetrahydrofuran-2-yl)methyl)amino)thiazol-4-yl)pyrido[3,4-d]pyrimidin-4(3H)-one] and COCCN1CCC(CNc2nc(-c3nccc4c(=O)[nH]c(COc5ccc(F)c(Cl)c5)nc34)cs2)CC1 [Compound 101, 2-((3-chloro-4-fluorophenoxy)methyl)-8-(2-(((1-(2-methoxyethyl)piperidin-4-yl)methyl)amino)thiazol-4-yl)pyrido[3,4-d]pyrimidin-4(3H)-one] cannot be ordered by inhibition at 0.1 µM: at least 50% for the first, 20 to 50% for the second.

O=c1[nH]c(COc2ccc(F)c(Cl)c2)nc2c(-c3cccc(Cl)n3)nccc12 [Compound 114, 2-((3-chloro-4-fluorophenoxy)methyl)-8-(6-chloropyridin-2-yl)pyrido[3,4-d]pyrimidin-4(3H)-one] and O=c1[nH]c(COc2ccc(F)c(Cl)c2)nc2c(-c3cc[nH]n3)nccc12 [Compound 76, 2-((3-chloro-4-fluorophenoxy)methyl)-8-(1H-pyrazol-3-yl)pyrido[3,4-d]pyrimidin-4(3H)-one] cannot be ordered by inhibition at 0.1 µM: under 20% for the first, under 20% for the second.

CN(C)CCNc1nc(-c2nccc3c(=O)[nH]cnc23)cs1 [Compound 43, 8-(2-((2-(dimethylamino)ethyl)amino)thiazol-4-yl)pyrido[3,4-d]pyrimidin-4(3H)-one] and CN1CCC(Nc2nc(-c3nccc4c(=O)[nH]cnc34)cs2)CC1 [Compound 50, 8-(2-((1-methylpiperidin-4-yl)amino)thiazol-4-yl)pyrido[3,4-d]pyrimidin-4(3H)-one] fall in the same range of inhibition at 0.1 µM: 20 to 50% for the first, 20 to 50% for the second.

C[C@H](O)CNc1nc(-c2nccc3c(=O)[nH]c(-c4cc5ccccc5o4)nc23)cs1 [Compound 168, (S)-2-(benzofuran-2-yl)-8-(2-((2-hydroxypropyl)amino)thiazol-4-yl)pyrido[3,4-d]pyrimidin-4(3H)-one] and O=C(Nc1nc(-c2nccc3c(=O)[nH]c(COc4ccc(F)c(Cl)c4)nc23)cs1)c1ccccc1 [Compound 124, N-(4-(2-((3-chloro-4-fluorophenoxy)methyl)-4-oxo-3,4-dihydropyrido[3,4-d]pyrimidin-8-yl)thiazol-2-yl)benzamide] cannot be ordered by inhibition at 0.1 µM: under 20% for the first, under 20% for the second.

Compared with CN1CCN(Cc2ccc(-c3cnn(-c4nccc5c(=O)[nH]cnc45)c3)cc2)CC1 [Compound 2, 8-(4-(4-((4-methylpiperazin-1-yl)methyl)phenyl)-1H-pyrazol-1-yl)pyrido[3,4-d]pyrimidin-4(3H)-one], CN1CCN(c2ccc(-c3cn(-c4nccc5c(=O)[nH]cnc45)nc3N)cc2)CC1 [Compound 17, 8-(3-amino-4-(4-(4-methylpiperazin-1-yl)phenyl)-1H-pyrazol-1-yl)pyrido[3,4-d]pyrimidin-4(3H)-one] is higher in inhibition at 0.1 µM: under 20% for the first, 20 to 50% for the second.

First: O=c1[nH]c(COc2ccc(C3CCCC3)cc2)nc2c(-c3csc(NCCO)n3)nccc12 [Compound 159, 2-((4-cyclopentylphenoxy)methyl)-8-(2-((2-hydroxyethyl)amino)thiazol-4-yl)pyrido[3,4-d]pyrimidin-4(3H)-one]
Second: O=c1[nH]c(COc2cc(Cl)cc(Cl)c2)nc2c(-c3csc(NCCO)n3)nccc12 [Compound 134, 2-((3,5-dichlorophenoxy)methyl)-8-(2-((2-hydroxyethyl)amino)thiazol-4-yl)pyrido[3,4-d]pyrimidin-4(3H)-one]
The inhibition at 0.1 µM of the first is lower: under 20% for the first, 20 to 50% for the second.

O=c1[nH]c(COc2ccc(F)c(Cl)c2)nc2c(-c3csc(NCC(O)CN4CCNCC4)n3)nccc12 (stereo not shown) [Compound 113, 2-((3-chloro-4-fluorophenoxy)methyl)-8-(2-((2-hydroxy-3-(piperazin-1-yl)propyl)amino)thiazol-4-yl)pyrido[3,4-d]pyrimidin-4(3H)-one] and O=c1[nH]c(COc2ccc(F)c(Cl)c2)nc2c(-c3csc(NCCCCN4CCCC4)n3)nccc12 [Compound 119, 2-((3-chloro-4-fluorophenoxy)methyl)-8-(2-((4-(pyrrolidin-1-yl)butyl)amino)thiazol-4-yl)pyrido[3,4-d]pyrimidin-4(3H)-one] cannot be ordered by inhibition at 0.1 µM: at least 50% for the first, 20 to 50% for the second.

Compared with O=c1[nH]c(COc2ccc(F)cc2)nc2c(-c3csc(NC4CCN(Cc5ccccc5)CC4)n3)nccc12 [Compound 128, 8-(2-((1-benzylpiperidin-4-yl)amino)thiazol-4-yl)-2-((4-fluorophenoxy)methyl) pyrido[3,4-d]pyrimidin-4(3H)-one], CN1CCC(Nc2nc(-c3nccc4c(=O)[nH]c(COCc5ccccc5)nc34)cs2)CC1 [Compound 155, 2-((benzyloxy)methyl)-8-(2-((1-methylpiperidin-4-yl)amino)thiazol-4-yl)pyrido[3,4-d]pyrimidin-4(3H)-one] is higher in inhibition at 0.1 µM: under 20% for the first, 20 to 50% for the second.

First: O=c1[nH]c(COc2ccc(F)c(Cl)c2)nc2c(-c3cnccn3)nccc12 [Compound 79, 2-((3-chloro-4-fluorophenoxy)methyl)-8-(pyrazin-2-yl)pyrido[3,4-d]pyrimidin-4(3H)-one]
Second: O=c1[nH]c(COc2ccc(F)c(Cl)c2)nc2c(-c3csc(NCCCc4ccccc4Cl)n3)nccc12 [Compound 109, 2-((3-chloro-4-fluorophenoxy)methyl)-8-(2-((3-(2-chlorophenyl)propyl)amino)thiazol-4-yl)pyrido[3,4-d]pyrimidin-4(3H)-one]
The inhibition at 0.1 µM of the first is higher: 20 to 50% for the first, under 20% for the second.

Nc1nn(-c2nccc3c(=O)[nH]cnc23)cc1-c1cnn(CCN2CCCC2)c1 [Compound 27, 8-(3-amino-1′-(2-(pyrrolidin-1-yl)ethyl)-1H,1′H-[4,4′-bipyrazol]-1-yl)pyrido[3,4-d]pyrimidin-4(3H)-one] and Nc1nn(-c2nccc3c(=O)[nH]cnc23)cc1-c1ccc(F)cc1 [Compound 23, 8-(3-amino-4-(4-fluorophenyl)-1H-pyrazol-1-yl)pyrido[3,4-d]pyrimidin-4(3H)-one] cannot be ordered by inhibition at 0.1 µM: 20 to 50% for the first, at least 50% for the second.

First: Cn1cnc(-c2nccc3c(=O)[nH]c(COc4ccc(Cc5ccccc5)cc4)nc23)c1 [Compound 70, 2-((4-benzylphenoxy)methyl)-8-(1-methyl-1H-imidazol-4-yl)pyrido[3,4-d]pyrimidin-4(3H)-one]
Second: COCCN1CCC(CNc2nc(-c3nccc4c(=O)[nH]c(COCc5ccccc5)nc34)cs2)CC1 [Compound 154, 2-((benzyloxy)methyl)-8-(2-(((1-(2-methoxyethyl)piperidin-4-yl)methyl)amino)thiazol-4-yl)pyrido[3,4-d]pyrimidin-4(3H)-one]
The inhibition at 0.1 µM of the first is higher: 20 to 50% for the first, under 20% for the second.
